Our source for the remaining activity values is patent US20110028445A1, “Urea derivatives of benzomorphanes and related scaffolds, medicaments containing such compounds and their use” (BOEHRINGER INGELHEIM INTERNATIONAL GMBH, priority 2008, published 2011).

For this test, the target named is T1, 11β-HSD1 (Homo sapiens, UniProt P28845).
T1 construct: detecting cortisol generated from cortisterone by human liver microsomes; from tissue; host or cells: human liver microsomes
T1 sequence (P28845 whole entry): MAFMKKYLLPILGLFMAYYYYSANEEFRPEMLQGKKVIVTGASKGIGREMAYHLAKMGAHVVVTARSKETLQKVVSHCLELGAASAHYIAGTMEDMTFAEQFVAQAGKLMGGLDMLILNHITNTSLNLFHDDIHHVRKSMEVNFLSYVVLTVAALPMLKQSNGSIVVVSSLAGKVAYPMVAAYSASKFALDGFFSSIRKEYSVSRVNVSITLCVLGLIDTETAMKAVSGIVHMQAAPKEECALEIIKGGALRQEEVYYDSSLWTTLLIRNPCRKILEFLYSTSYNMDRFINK
As to the kind of experiment: In vitro inhibition of 11β-HSD1, HTRF detection of cortisol generated by human liver microsomes. Format: biochemical. The following applies: compound concentration 1 μM, 100% indicates no inhibition, zero or below zero indicates complete inhibition, cortisone 80 nM, 1 hour at 37° C., read-out: % CTL at 1 μM. The method, then: Briefly, compounds were incubated for 1 hour at 37° C. in Tris buffer (20 mM tris, 5 mM EDTA, pH 6.0) containing NADPH (200 μM) and cortisone (80 nM). Cortisol generated in the reaction is then detected with a competitive immunoassay, involving two HTRF conjugates: cortisol linked to XL665 and anti-cortisol antibody labeled with Europium cryptate. The incubation period for detection reaction was typically 2 hours. The amount of cortisol is determined by reading the time-resolved fluorescence of the wells (Ex 320/75 nm; Em 615/8.5 nm and 665/7.5 nm). The ratio of the two emission signals is then calculated (Em665*10000/Em615). […] Each assay also contained a calibration curve with cortisol to transform the fluorescent data into cortisol concentrations. Percent inhibition of each compound was determined relative to the carbenoxolone signal and IC50 curves were generated.
The % CTL values of some example compounds at a concentration of 1 μM are provided in the following Table 2 wherein 100% indicates no inhibition and a value of zero or below zero indicates complete inhibition. The measurement of % CTL is described hereinbefore.
In general terms: TR-FRET usually uses a lanthanide donor and a delayed reading to cut background.
Consider `CC1(C)[C@H]2Cc3c(O)cccc3[C@]1(C)CCN2C(=O)N1CCCc2ccccc21` [Example 16], for which the remaining activity at 1 µM is -41%.
To `CC1(C)[C@H]2Cc3ccccc3[C@]1(C)CCN2C(=O)N1CCC[C@@H](CO)C1` [Example 71, [(R)-3-Hydroxymethyl-piperidin-1-yl]-[(2R,6S)-6,11,11-trimethyl-1,2,5,6-tetrahydro-4H-2,6-methano-benzo[d]azocin-3-yl)-methanone] belongs -18%; to `CC1(C)[C@H]2Cc3c(O)cccc3[C@]1(C)CCN2C(=O)N1CCCC(C(N)=O)C1` (stereo partly shown) [Example 41], -56%.
To `CC1(C)[C@H]2Cc3c(O)cccc3[C@]1(C)CCN2C(=O)N1CCC(C(N)=O)CC1` [Example 50] belongs -20%; to `CC1(C)[C@H]2Cc3c(O)cccc3[C@]1(C)CCN2C(=O)N1CCC(CO)CC1` [Example 25], -43%.
The result for `CC1(C)[C@H]2Cc3ccccc3[C@]1(C)CCN2C(=O)N1[C@@H]2CC[C@H]1C[C@@H](O)C2` [Example 74] reads -17%; that for `CC1(C)[C@H]2Cc3c(O)cccc3[C@]1(C)CCN2C(=O)N1CCCC(C(=O)Nc2ccccc2)C1` (stereo partly shown) [Example 42], 32%; that for `CC1(C)[C@H]2Cc3ccccc3[C@]1(C)CCN2C(=O)N1CCOCC1c1ccccc1` (stereo partly shown) [Example 68], 87%.
Regarding `CC1(C)[C@H]2Cc3ccccc3[C@]1(C)CCN2C(=O)N1CCC[C@H](CO)C1` [Example 64], the remaining activity at 1 µM was -33%.
To `CC1(C)[C@H]2Cc3ccccc3[C@]1(C)CCN2C(=O)N1[C@@H]2CC[C@H]1C[C@H](O)C2` [Example 79, (exo-3-Hydroxy-8-aza-bicyclo[3.2.1]oct-8-yl)-[(2R,6S)-6,11,11-trimethyl-1,2,5,6-tetrahydro-4H-2,6-methano-benzo[d]azocin-3-yl]-methanone] belongs 13%.
To `CC1(C)[C@H]2Cc3c(O)cccc3[C@]1(C)CCN2C(=O)N1CCCC(c2nnn[nH]2)C1` (stereo partly shown) [Example 59] belongs 70%; to `CC1(C)[C@H]2Cc3c(O)cccc3[C@]1(C)CCN2C(=O)N1CCCCC1` [Example 1, [(2R,6S)-10-Hydroxy-6,11,11-trimethyl-1,2,5,6-tetrahydro-4H-2,6-methano-benzo[d]azocin-3-yl]-piperidin-1-yl-methanone], -46%.
To `CC1(C)[C@H]2Cc3ccccc3[C@]1(C)CCN2C(=O)N1[C@@H]2CC[C@H]1CC(=O)C2` [Example 76] belongs -10%; to `CC1(C)[C@H]2Cc3ccccc3[C@]1(C)CCN2C(=O)N1CCC(O)CC1` [Example 70], -15%; to `COC(=O)CC1(c2ccccc2)CCN(C(=O)N2CC[C@@]3(C)c4ccccc4C[C@@H]2C3(C)C)C1` (stereo partly shown) [Example 75], 26%.
In the case of `CC1(C)[C@H]2Cc3ccccc3[C@]1(C)CCN2C(=O)N1[C@@H]2CC[C@H]1C[C@@](O)(C(F)(F)F)C2` [Example 80], the remaining activity at 1 µM turned out to be 70%.
For the compound `CC1(C)[C@H]2Cc3c(O)cccc3[C@]1(C)CCN2C(=O)N1CCC(O)(CO)CC1` [Example 37], the remaining activity at 1 µM was -7%.
The result for `CC1(C)[C@H]2Cc3ccccc3[C@]1(C)CCN2C(=O)N1CCCC2(CCCNC2=O)C1` (stereo partly shown) [Example 60] reads -19%.
The result for `CC1(C)[C@H]2Cc3c(O)cccc3[C@]1(C)CCN2C(=O)N1CCCC(c2nc3ccccc3[nH]2)C1` (stereo partly shown) [Example 52] reads 27%; that for `CC1(C)[C@H]2Cc3c(O)cccc3[C@]1(C)CCN2C(=O)N1CCCC(O)C1` (stereo partly shown) [Example 23], -9%.
The result for `CCOC(=O)C1CCCN(C(=O)N2CC[C@@]3(C)c4ccccc4C[C@@H]2C3(C)C)C1` (stereo partly shown) [Example 63] reads 47%.
Consider `CC(C)(O)[C@@H]1CCCN(C(=O)N2CC[C@@]3(C)c4ccccc4C[C@@H]2C3(C)C)C1` [Example 66, [(R)-3-(1-Hydroxy-1-methyl-ethyl)-piperidin-1-yl]-[(2R,6S)-6,11,11-trimethyl-1,2,5,6-tetrahydro-4H-2,6-methano-benzo[d]azocin-3-yl]-methanone], for which the remaining activity at 1 µM is -16%.
To `CC1(C)[C@H]2Cc3c(O)cccc3[C@]1(C)CCN2C(=O)N1CCc2ccccc2C1` [Example 11] belongs 18%.
To `CC1(C)[C@H]2Cc3ccccc3[C@]1(C)CCN2C(=O)N1CCCCC1` [Example 19] belongs -47%; to `CC1(C)[C@H]2Cc3c(O)cccc3[C@]1(C)CCN2C(=O)N1[C@@H]2CC[C@H]1C[C@@H](c1ccc(F)cc1)C2` [Example 17], -43%; to `CC1(C)[C@H]2Cc3c(O)cccc3[C@]1(C)CCN2C(=O)N1CCCC(O)CC1` (stereo partly shown) [Example 26], -41%.
The result for `CC1CCN(C(=O)N2CC[C@@]3(C)c4cccc(O)c4C[C@@H]2C3(C)C)CC1` [Example 9] reads -14%.
On to `CC1(C)[C@H]2Cc3c(O)cccc3[C@]1(C)CCN2C(=O)N1CCCC1` [Example 2], for which the remaining activity at 1 µM is 18%.
The result for `COc1cccc2c1C[C@H]1N(C(=O)N3CCCCC3)CC[C@]2(C)C1(C)C` [Example 31, [(2R,6S)-10-Methoxy-6,11,11-trimethyl-1,2,5,6-tetrahydro-4H-2,6-methano-benzo[d]azocin-3-yl]-piperidin-1-yl-methanone] reads -6%; that for `CCOC(=O)[C@H]1CCCN(C(=O)N2CC[C@@]3(C)c4ccccc4C[C@@H]2C3(C)C)C1` [Example 62], 13%; that for `CC1(C)[C@H]2Cc3c(O)cccc3[C@]1(C)CCN2C(=O)N1CCc2cc(O)ccc21` [Example 53], 7%.
To `CC1(C)[C@H]2Cc3c(O)cccc3[C@]1(C)CCN2C(=O)N1CCCC(CO)C1` (stereo partly shown) [Example 30] belongs -54%.
The result for `CC1(O)CCN(C(=O)N2CC[C@@]3(C)c4cccc(O)c4C[C@@H]2C3(C)C)CC1` [Example 27] reads -41%.
`C[C@@H]1[C@H]2Cc3ccc(C#N)cc3[C@]1(C)CCN2C(=O)N1CCCCC1` [Example 21]: the remaining activity at 1 µM was -28%.
To `CC1(C)[C@H]2Cc3ccccc3[C@]1(C)CCN2C(=O)N1[C@@H]2CC[C@H]1C[C@](O)(C(F)(F)F)C2` [Example 73] belongs -6%; to `CC1(C)[C@H]2Cc3c(O)cccc3[C@]1(C)CCN2C(=O)N1CCCC2(CCCNC2=O)C1` (stereo partly shown) [Example 43], -45%; to `CC1(C)[C@H]2Cc3c(O)cccc3[C@]1(C)CCN2C(=O)N1CCc2ccccc21` [Example 18], -8%.
The result for `CC(C)(O)[C@H]1CCCN(C(=O)N2CC[C@@]3(C)c4ccccc4C[C@@H]2C3(C)C)C1` [Example 69] reads 6%; that for `CC1(C)[C@H]2Cc3c(O)cccc3[C@]1(C)CCN2C(=O)N1CCc2cc(O)ccc2C1` [Example 44], -4%.
To `CC1(C)[C@H]2Cc3c(O)cccc3[C@]1(C)CCN2C(=O)N1C2CCCC1CC(O)C2` (stereo partly shown) [Example 40] belongs -17%.
As for `CC1(C)[C@H]2Cc3c(O)cccc3[C@]1(C)CCN2C(=O)N1CCn2cnnc2C1` [Example 47], the remaining activity at 1 µM was 94%.
To `CC1(C)[C@H]2Cc3c(O)cccc3[C@]1(C)CCN2C(=O)N1CCCC1CO` (stereo partly shown) [Example 28] belongs 36%.
On to `CC1(C)[C@H]2Cc3c(OCC#N)cccc3[C@]1(C)CCN2C(=O)N1CCCCC1` [Example 33], for which the remaining activity at 1 µM turned out to be 23%.
To `CC1(C)[C@H]2Cc3c(O)cccc3[C@]1(C)CCN2C(=O)N1CC(O)C1` [Example 24] belongs 70%; to `CC1(C)[C@H]2Cc3c(ccc(C#N)c3O)[C@]1(C)CCN2C(=O)N1CCCCC1` [Example 35, (2R,6S)-10-Hydroxy-6,11,11-trimethyl-3-(piperidine-1-carbonyl)-1,2,3,4,5,6-hexahydro-2,6-methano-benzo[d]azocine-9-carbonitrile], -30%; to `Cc1ccc2c(c1)CCCN2C(=O)N1CC[C@@]2(C)c3cccc(O)c3C[C@@H]1C2(C)C` [Example 48], -18%.
Consider `CC1(C)[C@H]2Cc3c(O)cccc3[C@]1(C)CCN2C(=O)N1CCC(O)CC1` [Example 13], for which the remaining activity at 1 µM was -53%.
The result for `CC1(C)[C@H]2Cc3ccccc3[C@]1(C)CCN2C(=O)N1CCC(c2ccccc2)C1` (stereo partly shown) [Example 61] reads 7%.
The result for `CC1(C)[C@H]2Cc3c(O)cccc3[C@]1(C)CCN2C(=O)N1CCC(O)C1` (stereo partly shown) [Example 29] reads 30%; that for `CC1(C)[C@H]2Cc3cc(C#N)ccc3[C@]1(C)CCN2C(=O)N1CCCCC1` [Example 36, (2R,6S)-6,11,11-Trimethyl-3-(piperidine-1-carbonyl)-1,2,3,4,5,6-hexahydro-2,6-methano-benzo[d]azocine-9-carbonitrile], -31%.
To `CC(C)(O)CC1(c2ccccc2)CCN(C(=O)N2CC[C@@]3(C)c4ccccc4C[C@@H]2C3(C)C)C1` (stereo partly shown) [Example 78] belongs 61%; to `CC1(C)[C@H]2Cc3c(O)cccc3[C@]1(C)CCN2C(=O)N1CCc2sccc2C1` [Example 8], -27%.
